In ChEMBL document CHEMBL3885881, “DrugMatrix”:

Species on record: Rattus norvegicus
Test: DrugMatrix - Regimen: Daily Repeat
Type: toxicity, organism-based, Sprague-Dawley
Design: regimen Daily Repeat, gender Male, age 6-8 weeks
Details: in vivo, po, 0 mg/kg, route oral GAVAGE, dose level Control, vehicle .5 % CMC; for ABSOLUTE BASOPHIL / ABSOLUTE EOSINOPHIL / ABSOLUTE LYMPHOCYTE / ABSOLUTE MONOCYTE / ABSOLUTE SEGMENTED NEUTROPHIL / BASOPHIL / EOSINOPHIL / ERYTHROCYTE COUNT / HEMATOCRIT / HEMOGLOBIN / LEUKOCYTE COUNT / LYMPHOCYTE / MEAN CORPUSCULAR HEMOGLOBIN / MEAN CORPUSCULAR HEMOGLOBIN CONCENTRATION / MEAN CORPUSCULAR VOLUME / MONOCYTE / NEUTROPHIL / NUCLEATED RED BLOOD CELLS / PLATELET COUNT: tissue Blood; for ALANINE AMINOTRANSFERASE / ALBUMIN / ALKALINE PHOSPHATASE / ASPARTATE AMINOTRANSFERASE / BLOOD UREA NITROGEN / CARBON DIOXIDE / CHLORIDE / CHOLESTEROL / CREATININE / GLUCOSE / LACTATE DEHYDROGENASE / LIPASE / PHOSPHORUS / POTASSIUM / SODIUM / TOTAL BILIRUBIN / TOTAL PROTEIN / URIC ACID: tissue Plasma

ClC(Cl)Br [BROMODICHLOROMETHANE]
ABSOLUTE BASOPHIL (72 h, time 3 day): 0 CELLS/uL
ABSOLUTE EOSINOPHIL (72 h, time 3 day): 279.83 CELLS/uL
ABSOLUTE LYMPHOCYTE (72 h, time 3 day): 13152.5 CELLS/uL
ABSOLUTE MONOCYTE (72 h, time 3 day): 1013.83 CELLS/uL
ABSOLUTE SEGMENTED NEUTROPHIL (72 h, time 3 day): 2420.5 CELLS/uL
BASOPHIL (72 h, time 3 day): 0%
EOSINOPHIL (72 h, time 3 day): 1.67%
ERYTHROCYTE COUNT (72 h, time 3 day): 5.26 x10E6/uL
HEMATOCRIT (72 h, time 3 day): 32.22%
HEMOGLOBIN (72 h, time 3 day): 12.02 G/DL
LEUKOCYTE COUNT (72 h, time 3 day): 16.87 x10E3/uL
LYMPHOCYTE (72 h, time 3 day): 77.83%
MEAN CORPUSCULAR HEMOGLOBIN (72 h, time 3 day): 22.93 pg
MEAN CORPUSCULAR HEMOGLOBIN CONCENTRATION (72 h, time 3 day): 37.32 G/DL
MEAN CORPUSCULAR VOLUME (72 h, time 3 day): 61.4 fL
MONOCYTE (72 h, time 3 day): 6%
NEUTROPHIL (72 h, time 3 day): 14.5%
NUCLEATED RED BLOOD CELLS (72 h, time 3 day): 0 /100WBC
PLATELET COUNT (72 h, time 3 day): 1122.17 x10E3/uL
ALANINE AMINOTRANSFERASE (72 h, time 3 day): 55.67 u/L
ALBUMIN (72 h, time 3 day): 4.35 G/DL
ALKALINE PHOSPHATASE (72 h, time 3 day): 362.67 u/L
ASPARTATE AMINOTRANSFERASE (72 h, time 3 day): 96 u/L
BLOOD UREA NITROGEN (72 h, time 3 day): 18 mg/dL
CARBON DIOXIDE (72 h, time 3 day): 27.5 mmol/L
CHLORIDE (72 h, time 3 day): 100.17 MEQ/L
CHOLESTEROL (72 h, time 3 day): 74.5 mg/dL
CREATININE (72 h, time 3 day): 0.17 mg/dL
GLUCOSE (72 h, time 3 day): 141.67 mg/dL
LACTATE DEHYDROGENASE (72 h, time 3 day): 682.5 u/L
LIPASE (72 h, time 3 day): 10 u/L
PHOSPHORUS (72 h, time 3 day): 11.5 mg/dL
POTASSIUM (72 h, time 3 day): 6.41 MEQ/L
SODIUM (72 h, time 3 day): 141.2 MEQ/L
TOTAL BILIRUBIN (72 h, time 3 day): 0.18 mg/dL
TOTAL PROTEIN (72 h, time 3 day): 5.88 G/DL
URIC ACID (72 h, time 3 day): 1.4 mg/dL
ABSOLUTE BASOPHIL (120 h, time 5 day): 0 CELLS/uL
ABSOLUTE EOSINOPHIL (120 h, time 5 day): 18.5 CELLS/uL
ABSOLUTE LYMPHOCYTE (120 h, time 5 day): 8146.83 CELLS/uL
ABSOLUTE MONOCYTE (120 h, time 5 day): 204.83 CELLS/uL
ABSOLUTE SEGMENTED NEUTROPHIL (120 h, time 5 day): 1329.83 CELLS/uL
BASOPHIL (120 h, time 5 day): 0%
EOSINOPHIL (120 h, time 5 day): 0.17%
ERYTHROCYTE COUNT (120 h, time 5 day): 5.37 x10E6/uL
HEMATOCRIT (120 h, time 5 day): 33.17%
HEMOGLOBIN (120 h, time 5 day): 12.07 G/DL
LEUKOCYTE COUNT (120 h, time 5 day): 9.7 x10E3/uL
LYMPHOCYTE (120 h, time 5 day): 85.33%
MEAN CORPUSCULAR HEMOGLOBIN (120 h, time 5 day): 22.52 pg
MEAN CORPUSCULAR HEMOGLOBIN CONCENTRATION (120 h, time 5 day): 36.42 G/DL
MEAN CORPUSCULAR VOLUME (120 h, time 5 day): 61.78 fL
MONOCYTE (120 h, time 5 day): 1.83%
NEUTROPHIL (120 h, time 5 day): 12.67%
NUCLEATED RED BLOOD CELLS (120 h, time 5 day): 0 /100WBC
PLATELET COUNT (120 h, time 5 day): 907.5 x10E3/uL
ALANINE AMINOTRANSFERASE (120 h, time 5 day): 58.5 u/L
ALBUMIN (120 h, time 5 day): 4.4 G/DL
ALKALINE PHOSPHATASE (120 h, time 5 day): 377.67 u/L
ASPARTATE AMINOTRANSFERASE (120 h, time 5 day): 140.33 u/L
BLOOD UREA NITROGEN (120 h, time 5 day): 15.33 mg/dL
CARBON DIOXIDE (120 h, time 5 day): 32.17 mmol/L
CHLORIDE (120 h, time 5 day): 100 MEQ/L
CHOLESTEROL (120 h, time 5 day): 71.83 mg/dL
CREATININE (120 h, time 5 day): 0.18 mg/dL
GLUCOSE (120 h, time 5 day): 185 mg/dL
LACTATE DEHYDROGENASE (120 h, time 5 day): 241.5 u/L
LIPASE (120 h, time 5 day): 9.5 u/L
PHOSPHORUS (120 h, time 5 day): 13.02 mg/dL
POTASSIUM (120 h, time 5 day): 6.45 MEQ/L
SODIUM (120 h, time 5 day): 143.45 MEQ/L
TOTAL BILIRUBIN (120 h, time 5 day): 0.22 mg/dL
TOTAL PROTEIN (120 h, time 5 day): 6.1 G/DL
URIC ACID (120 h, time 5 day): 1 mg/dL
ABSOLUTE BASOPHIL ([…], time 14 day): 0 CELLS/uL
ABSOLUTE EOSINOPHIL ([…], time 14 day): 117.17 CELLS/uL
ABSOLUTE LYMPHOCYTE ([…], time 14 day): 13562 CELLS/uL
ABSOLUTE MONOCYTE ([…], time 14 day): 534.83 CELLS/uL
ABSOLUTE SEGMENTED NEUTROPHIL ([…], time 14 day): 2486 CELLS/uL
BASOPHIL ([…], time 14 day): 0%
EOSINOPHIL ([…], time 14 day): 0.83%
ERYTHROCYTE COUNT ([…], time 14 day): 6.14 x10E6/uL
HEMATOCRIT ([…], time 14 day): 36.87%
HEMOGLOBIN ([…], time 14 day): 13.87 G/DL
LEUKOCYTE COUNT ([…], time 14 day): 16.7 x10E3/uL
LYMPHOCYTE ([…], time 14 day): 81%
MEAN CORPUSCULAR HEMOGLOBIN ([…], time 14 day): 22.63 pg
MEAN CORPUSCULAR HEMOGLOBIN CONCENTRATION ([…], time 14 day): 37.62 G/DL
MEAN CORPUSCULAR VOLUME ([…], time 14 day): 60.15 fL
MONOCYTE ([…], time 14 day): 3.17%
NEUTROPHIL ([…], time 14 day): 15%
NUCLEATED RED BLOOD CELLS ([…], time 14 day): 0 /100WBC
PLATELET COUNT ([…], time 14 day): 974.83 x10E3/uL
ALANINE AMINOTRANSFERASE ([…], time 14 day): 52.33 u/L
ALBUMIN ([…], time 14 day): 4.48 G/DL
ALKALINE PHOSPHATASE ([…], time 14 day): 346.17 u/L
ASPARTATE AMINOTRANSFERASE ([…], time 14 day): 81 u/L
BLOOD UREA NITROGEN ([…], time 14 day): 15.67 mg/dL
CARBON DIOXIDE ([…], time 14 day): 34.33 mmol/L
CHLORIDE ([…], time 14 day): 100.17 MEQ/L
CHOLESTEROL ([…], time 14 day): 70.83 mg/dL
CREATININE ([…], time 14 day): 0.22 mg/dL
GLUCOSE ([…], time 14 day): 141.17 mg/dL
LACTATE DEHYDROGENASE ([…], time 14 day): 121.33 u/L
LIPASE ([…], time 14 day): 8.33 u/L
PHOSPHORUS ([…], time 14 day): 9.97 mg/dL
POTASSIUM ([…], time 14 day): 6.4 MEQ/L
SODIUM ([…], time 14 day): 143.72 MEQ/L
TOTAL BILIRUBIN ([…], time 14 day): 0.22 mg/dL
TOTAL PROTEIN ([…], time 14 day): 6.45 G/DL
URIC ACID ([…], time 14 day): 1.25 mg/dL
